ChEMBL document CHEMBL1255340, “In vitro activities of the Rx-01 oxazolidinones against hospital and community pathogens” (2008)
Converted amounts (≈) assume the structure as drawn. “And” between values parts separate entries of the source, which are not always exact repeats. Equal entries are not always repeated.

Assays:
Assay type in all cases: functional
[1] = tested on: Staphylococcus aureus; experiment: Antimicrobial activity against methicillin-susceptible Staphylococcus aureus nosocomial isolate
[2] = tested on: Streptococcus pneumoniae; experiment: Antimicrobial activity against Streptococcus pneumoniae 02J1175
[3] = tested on: Enterococcus faecalis; experiment: Antimicrobial activity against Enterococcus faecalis A6350
[4] = tested on: Enterococcus faecalis; experiment: Antimicrobial activity against Enterococcus faecalis A7789
[5] = tested on: Staphylococcus capitis; experiment: Antimicrobial activity against Staphylococcus capitis A8935
[6] = tested on: Enterococcus faecalis; experiment: Antimicrobial activity against vancomycin-resistant Enterococcus faecalis nosocomial isolate
[7] = tested on: Enterococcus faecalis; experiment: Antimicrobial activity against Enterococcus faecalis A5962
[8] = tested on: Enterococcus faecalis; experiment: Antimicrobial activity against vancomycin-resistant Enterococcus faecalis 03B1069
[9] = tested on: Enterococcus faecium; experiment: Antimicrobial activity against vancomycin-resistant Enterococcus faecium nosocomial isolate
[10] = tested on: Streptococcus pneumoniae; experiment: Antimicrobial activity against Streptococcus pneumoniae 02J1258
[11] = tested on: Streptococcus pneumoniae; experiment: Antimicrobial activity against Streptococcus pneumoniae PU1071099 harboring 65WR66 deletion in ribosomal protein L4 by broth microdilution method
[12] = tested on: Enterococcus faecalis; experiment: Antimicrobial activity against Enterococcus faecalis ATCC 29212
[13] = tested on: Enterococcus faecalis; experiment: Antimicrobial activity against Enterococcus faecalis ATCC 29212-P5 harboring G2576U mutation in 23S rRNA
[14] = tested on: Staphylococcus hominis; experiment: Antimicrobial activity against Staphylococcus hominis A7828
[15] = tested on: Enterococcus faecium; experiment: Antimicrobial activity against vancomycin-susceptible Enterococcus faecium nosocomial isolate by broth microdilution method

Molecule | MIC [1] | MIC [2] | MIC [3] | MIC [4] | MIC [5] | MIC [6] | MIC [7] | MIC [8] | MIC ([9]; Enterococcus faecium, read-out: MIC) | MIC [10] | MIC [11] | MIC [12] | MIC [13] | MIC [14] | MIC [9] | MIC [15]
CC[C@H]1OC(=O)[C@H](C)C(=O)[C@H](C)[C@@H](O[C@@H]2O[C@H](C)C[C@H](N(C)C)[C@H]2O)[C@](C)(OC)C[C@@H](C)C(=O)[C@H](C)[C@H]2N(CCCCn3cnc(-c4cccnc4)c3)C(=O)O[C@]12C [TELITHROMYCIN] | >=0.06 ug ml-1 and 0.125 ug ml-1 | – | – | – | – | – | – | – | – | – | – | – | – | – | – | –
CN[C@H](CC(C)C)C(=O)N[C@H]1C(=O)N[C@@H](CC(N)=O)C(=O)N[C@H]2C(=O)N[C@H]3C(=O)N[C@H](C(=O)N[C@H](C(=O)O)c4cc(O)cc(O)c4-c4cc3ccc4O)[C@H](O)c3ccc(c(Cl)c3)Oc3cc2cc(c3O[C@@H]2O[C@H](CO)[C@@H](O)[C@H](O)[C@H]2O[C@H]2C[C@](C)(N)[C@H](O)[C@H](C)O2)Oc2ccc(cc2Cl)[C@H]1O [VANCOMYCIN] | – | 0.25 µg/mL (≈ 0.173 µM) | 1 µg/mL (≈ 0.69 µM) | 1 µg/mL (≈ 0.69 µM) | 1 µg/mL (≈ 0.69 µM) | >16 µg/mL | 8 µg/mL (≈ 5.52 µM) | 32 µg/mL (≈ 22.1 µM) | > 64 µg/mL | 0.125 µg/mL (≈ 0.0863 µM) | ≤ 0.25 µg/mL | 2 µg/mL (≈ 1.38 µM) | 2 µg/mL (≈ 1.38 µM) | 2 µg/mL (≈ 1.38 µM) | – | –
GENTAMICIN | – | – | – | – | – | > 128 µg/mL | – | – | – | – | – | – | – | – | > 128 µg/mL | > 128 µg/mL
